The values that follow come from US8871774B2, “Inhibitors of influenza viruses replication” (priority 2010, dated 2014).

For test [1], the system named is Influenza virus, strain A/PR/8/34. Nature of the test: microbe, parasite or virus in culture. Format: cell-based.
The test system of test [2] is influenza A virus (A/PR/8/34). Description: cytopathic effect (CPE) assay, MDCK cell protection by ATP detection. Type of test: cell-based. The settings on record: mean IC50, MDCK cells, A/PR/8/34, 72 hours, 50% cell protection. On the technique in general: Damage to the host cells serves as the signal in cytopathic effect assays.
[3] abbreviates: unidentified influenza virus, PR/8, read-out: bDNA EC50 (uM).
[4] abbreviates: Influenza A virus, Table 1, read-out: Flu, MDCK IC50.
The mark [5] stands for this setting: Influenza A virus, Table 2, read-out: Flu MDCK IC50.
The mark [6] stands for this setting: read-out: bDNA EC50, Table 2, mean EC50, viral RNA level 50% of control wells.

The EC50 is the concentration giving half of the maximal effect. As usually defined, the IC50 is the concentration needed to halve the response being measured.

Like-named read-outs stand apart in the source and are kept apart here.

Take `O=C(O)[C@@H]1CCCC2(CCCC2)[C@@H]1Nc1nc(-c2n[nH]c3ncc(F)cc23)ncc1F` [Compound I-38]: the EC50 in test [1] (setting [3]) was less than 3.3 µM. Besides, the IC50 in test [2] (setting [4]) is less than 3.3 µM.

Consider `O=C(O)[C@H]1C2CCC(CC2)[C@@H]1Nc1nc(-c2n[nH]c3ncc(Cl)cc23)ncc1F` (racemic) [Compound I-6, (+/−) trans-(2S,3S)-3-((2-(5-chloro-1H-pyrazolo[3,4-b]pyridin-3-yl)-5-fluoropyrimidin-4-yl)amino)bicyclo[2.2.2]octane-2-carboxylic acid], for which the EC50 in test [1] (setting [3]) was less than 3.3 µM. For the same molecule, the IC50 in test [2] (setting [4]) was less than 3.3 µM.

Regarding `C[C@]1(C(=O)O)CCCC[C@@H]1Nc1nc(-c2n[nH]c3ncc(Cl)cc23)ncc1F` (racemic) [Compound I-13, (+/−)-2-((2-(5-chloro-1H-pyrazolo[3,4-b]pyridin-3-yl)-5-fluoropyrimidin-4-yl)amino)-1-methylcyclohexanecarboxylic acid], the EC50 in test [1] (setting [3]) was less than 3.3 µM. Also, the IC50 in test [2] (setting [4]) was less than 3.3 µM.

For the molecule `COC(=O)[C@H]1C2CCC(CC2)[C@@H]1Nc1nc(-c2n[nH]c3ncc(F)cc23)ncc1F` (racemic) [Compound I-28, (+/−) trans-methyl 3-(5-fluoro-2-(5-fluoro-1H-pyrazolo[3,4-b]pyridin-3-yl)pyrimidin-4-ylamino)bicyclo[2.2.2]octane-2-carboxylate], in test [1] (setting [3]), the 50% effective concentration (EC50) was less than 3.3 µM. Also, in test [2] (setting [4]), the IC50 is less than 3.3 µM.

Consider `O=C(N[C@@H]1CCC[C@H](Nc2nc(-c3n[nH]c4ncc(F)cc34)ncc2F)C1)N1CC[C@@H](F)C1` [Compound I-23, (R)-3-fluoro-N-((1R,3S)-3-((5-fluoro-2-(5-fluoro-1H-pyrazolo[3,4-b]pyridin-3-yl)pyrimidin-4-yl)amino)cyclohexyl)pyrrolidine-1-carboxamide], for which, in test [1] (setting [3]), the EC50 is less than 3.3 µM. Further, the IC50 in test [2] (setting [4]) was less than 3.3 µM.

Turning to `C[C@H]1CCCN1C(=O)N[C@@H]1CCC[C@H](Nc2nc(-c3n[nH]c4ncccc34)ncc2F)C1` [Compound I-15, (S)—N-((1R,3S)-3-((5-fluoro-2-(1H-pyrazolo[3,4-b]pyridin-3-yl)pyrimidin-4-yl)-amino)cyclohexyl)-2-methylpyrrolidine-1-carboxamide], in test [1] (setting [3]), the EC50 was less than 3.3 µM. Further, the IC50 in test [2] (setting [4]) was less than 3.3 µM.

With `C[C@@H]1CCCN1C(=O)N[C@@H]1CCC[C@H](Nc2nc(-c3n[nH]c4ncccc34)ncc2F)C1` [Compound I-18, (R)—N-((1R,3S)-3-((5-fluoro-2-(1H-pyrazolo[3,4-b]pyridin-3-yl)pyrimidin-4-yl)amino)cyclohexyl)-2-methylpyrrolidine-1-carboxamide], the EC50 in test [1] (setting [3]) is less than 3.3 µM. Besides, in test [2] (setting [4]), the IC50 was less than 3.3 µM.

As for `O=C(O)[C@H]1C2CCC(CC2)[C@@H]1Nc1nc(-c2n[nH]c3ncc(F)cc23)ncc1F` [Compound I-29], the EC50 in test [1] (setting [3]) is less than 3.3 µM. Moreover, the half-inhibitory concentration (IC50) in test [2] (setting [4]) is less than 3.3 µM.

Consider `COC(=O)[C@H]1C2CCC(CC2)[C@@H]1Nc1nc(-c2n[nH]c3ncc(Cl)cc23)ncc1F` (racemic) [Compound I-2, (+/−)-trans-(2,3)-methyl 3-((2-(5-chloro-1H-pyrazolo[3,4-b]pyridin-3-yl)-5-fluoropyrimidin-4-yl)amino)bicyclo[2.2.2]octane-2-carboxylate], for which, in test [1] (setting [3]), the EC50 is less than 3.3 µM. Moreover, the IC50 in test [2] (setting [4]) was less than 3.3 µM.

On to `O=C(O)[C@H]1C2CCC(CC2)C1Nc1ccnc(-c2n[nH]c3ncc(F)cc23)n1` (mixture of isomers) [Compound I-43, (+/−)-trans-3-((2-(5-fluoro-1H-pyrazolo[3,4-b]pyridin-3-yl)pyrimidin-4-yl)amino)bicyclo[2.2.2]octane-2-carboxylic acid], for which, in test [1] (setting [3]), the EC50 was less than 3.3 µM. For the same molecule, the IC50 in test [2] (setting [5]) is less than 3.3 µM.

As for `COC(=O)[C@H]1C2CCC(CC2)C1Nc1ccnc(-c2n[nH]c3ncc(F)cc23)n1` (mixture of isomers) [Compound I-42, (+/−)-trans-methyl-3-((2-(5-fluoro-1H-pyrazolo[3,4-b]pyridin-3-yl)pyrimidin-4-yl)amino)bicyclo[2.2.2]octane-2-carboxylate], in test [1] (setting [3]), the EC50 is less than 3.3 µM. Further, in test [2] (setting [5]), the 50% inhibitory concentration (IC50) is less than 3.3 µM.

For the molecule `O=C(O)[C@@H]1C2CCC(CC2)[C@H]1Nc1nc(-c2n[nH]c3ncc(Cl)cc23)ncc1F` [Compound I-10, (2R,3R)-3-((2-(5-chloro-1H-pyrazolo[3,4-b]pyridin-3-yl)-5-fluoropyrimidin-4-yl)-amino)bicyclo[2.2.2]octane-2-carboxylic acid], the EC50 in test [1] (setting [3]) is less than 3.3 µM. Also, the IC50 in test [2] (setting [4]) is less than 3.3 µM.

On to `O=C(O)[C@H]1C2CCC(CC2)[C@@H]1Nc1nc(-c2n[nH]c3ncc(Cl)cc23)ncc1F` [Compound I-9, (2S,3 S)-3-((2-(5-chloro-1H-pyrazolo[3,4-b]pyridin-3-yl)-5-fluoropyrimidin-4-yl)-amino)bicyclo[2.2.2]octane-2-carboxylic acid], for which the EC50 in test [1] (setting [3]) is less than 3.3 µM. Besides, the IC50 in test [2] (setting [4]) is less than 3.3 µM.

As to `O=C(O)[C@H]1CCCC2(CCCC2)[C@H]1Nc1nc(-c2n[nH]c3ncc(F)cc23)ncc1F` [Compound I-39, (6S,7S)-6-((5-fluoro-2-(5-fluoro-1H-pyrazolo[3,4-b]pyridin-3-yl)pyrimidin-4-yl)amino)spiro[4.5]decane-7-carboxylic acid], the EC50 in test [1] (setting [3]) is less than 3.3 µM. The IC50 in test [2] (setting [5]) is less than 3.3 µM.

For `Cn1cnc(C(=O)N[C@@H]2CCC[C@H](Nc3nc(-c4n[nH]c5ncccc45)ncc3F)C2)c1` [Compound I-24, N-((1R,3S)-3-((5-fluoro-2-(1H-pyrazolo[3,4-b]pyridin-3-yl)pyrimidin-4-yl)amino)cyclohexyl)-1-methyl-1H-imidazole-4-carboxamide], in test [1] (setting [3]), the EC50 is less than 3.3 µM. For the same molecule, the IC50 in test [2] (setting [4]) is less than 3.3 µM.

`O=C(O)[C@@H]1CCCC2(CCCC2)[C@H]1Nc1nc(-c2n[nH]c3ncc(F)cc23)ncc1F` [Compound I-46]: the EC50 in test [1] (setting [3]) is more than 3.3 µM. For the same molecule, in test [2] (setting [5]), the IC50 was less than 3.3 µM.

In the case of `O=C(O)[C@H]1C2CCC(CC2)[C@@H]1Nc1nc(-c2n[nH]c3ncc(F)cc23)ncc1F` [Compound I-44], the 50% effective concentration (EC50) in test [1] (setting [6]) was less than 3.3 µM. Moreover, in test [2] (setting [5]), the IC50 is less than 3.3 µM.

As for `O=C(N[C@@H]1CCC[C@H](Nc2nc(-c3n[nH]c4ncccc34)ncc2F)C1)N1CC[C@H](F)C1` [Compound I-17, (S)-3-fluoro-N-((1R,3S)-3-((5-fluoro-2-(1H-pyrazolo[3,4-b]pyridin-3-yl)pyrimidin-4-yl)amino)cyclohexyl)pyrrolidine-1-carboxamide], the EC50 in test [1] (setting [3]) was less than 3.3 µM. Further, the IC50 in test [2] (setting [4]) was less than 3.3 µM.

With `O=C(O)C[C@H]1C2CCC(CC2)[C@@H]1Nc1nc(-c2n[nH]c3ncc(F)cc23)ncc1F` [Compound I-48, 2-((2S,3S)-3-((5-fluoro-2-(5-fluoro-1H-pyrazolo[3,4-b]pyridin-3-yl)pyrimidin-4-yl)amino)bicyclo[2.2.2]octan-2-yl)acetic acid], the concentration giving a half-maximal response (EC50) in test [1] (setting [3]) is less than 3.3 µM. In addition, the IC50 in test [2] (setting [5]) was less than 3.3 µM.

`O=C(O)[C@@H]1CCCC2(CCCC2)[C@@H]1Nc1nc(-c2n[nH]c3ncc(F)cc23)ncc1F` [Compound I-40, (6R,7R)-6-((5-fluoro-2-(5-fluoro-1H-pyrazolo[3,4-b]pyridin-3-yl)-pyrimidin-4-yl)amino)spiro[4.5]decane-7-carboxylic acid]: the EC50 in test [1] (setting [6]) is less than 3.3 µM. Besides, the IC50 in test [2] (setting [5]) was less than 3.3 µM.

As to `O=C(O)[C@H]1CCCC2(CCCC2)[C@@H]1Nc1nc(-c2n[nH]c3ncc(F)cc23)ncc1F` [Compound I-45], the EC50 in test [1] (setting [3]) is less than 3.3 µM. Besides, the IC50 in test [2] (setting [5]) is less than 3.3 µM.

Consider `O=C(N[C@@H]1CCC[C@H](Nc2nc(-c3n[nH]c4ncc(F)cc34)ncc2F)C1)N1CCOCC1` [Compound I-21, N-((1R,3S)-3-((5-fluoro-2-(5-fluoro-1H-pyrazolo[3,4-b]pyridin-3-yl)pyrimidin-4-yl)amino)cyclohexyl)morpholine-4-carboxamide], for which, in test [1] (setting [3]), the EC50 is less than 3.3 µM. In test [2] (setting [4]), the IC50 was less than 3.3 µM.

In the case of `O=C(O)[C@H]1C2CCC(CC2)[C@@H]1Nc1nc(-c2n[nH]c3ncc(F)cc23)ncc1Cl` (racemic) [Compound I-33, (+/−)-trans-(2,3)-3-((5-chloro-2-(5-fluoro-1H-pyrazolo[3,4-b]pyridin-3-yl)pyrimidin-4-yl)amino)bicyclo[2.2.2]octane-2-carboxylic acid], the EC50 in test [1] (setting [3]) was less than 3.3 µM. Moreover, the IC50 in test [2] (setting [4]) is less than 3.3 µM.

`Cn1cncc1C(=O)N[C@@H]1CCC[C@H](Nc2nc(-c3n[nH]c4ncc(F)cc34)ncc2F)C1` [Compound I-27, N-((1R,3S)-3-((5-fluoro-2-(5-fluoro-1H-pyrazolo[3,4-b]pyridin-3-yl)pyrimidin-4-yl)amino)cyclohexyl)-1-methyl-tH-imidazole-5-carboxamide]: the EC50 in test [1] (Table 1, mean EC50, viral RNA level 50% of control wells, read-out: bDNA EC50) was less than 3.3 µM. Further, in test [2] (Table 1, read-out: Flu, MDCK IC50), the IC50 is less than 3.3 µM.

On to `O=C(N[C@@H]1CCC[C@H](Nc2nc(-c3n[nH]c4ncccc34)ncc2F)C1)N1CCOCC1` [Compound I-7], for which the EC50 in test [1] (setting [3]) was less than 3.3 µM. Besides, the IC50 in test [2] (setting [4]) was less than 3.3 µM.

For the molecule `COC(=O)[C@H]1C2CCCC(CC2)[C@@H]1Nc1nc(-c2n[nH]c3ncc(F)cc23)ncc1F` (mixture of isomers) [Compound I-36, (+/−)-methyl 7-(5-fluoro-2-(5-fluoro-1H-pyrazolo[3,4-b]pyridin-3-yl)pyrimidin-4-ylamino)bicyclo[3.2.2]nonane-6-carboxylate], the concentration for a half-maximal effect (EC50) in test [1] (setting [3]) was less than 3.3 µM. For the same molecule, the IC50 in test [2] (setting [4]) was less than 3.3 µM.

With `O=C(N[C@@H]1CCC[C@H](Nc2nc(-c3n[nH]c4ncc(Cl)cc34)ncc2F)C1)N1CCOCC1` [Compound I-1, N-((1R,3S)-3-((2-(5-chloro-1H-pyrazolo[3,4-b]pyridin-3-yl)-5-fluoropyrimidin-4-yl)amino)cyclohexyl)morpholine-4-carboxamide], the EC50 in test [1] (setting [3]) was less than 3.3 µM. Moreover, the IC50 in test [2] (setting [4]) is less than 3.3 µM.
